The test system of one assay is C57BI/6 mice. The assay can be described thus: Dark-light box test after 14 days of drinking water. The format is in vivo. Particulars: three-months-old male mice; water ad libitum 14 days; Diazepam 2.5 mg/kg bolus 30 min prior the test; mean±SEM. On the procedure: Bolus injection of anxiolytic drug Diazepam (2.5 mg/kg, 30 min prior the test) was used as a positive reference control.

The test system of another assay is C57BI/6J mice. The assay can be described thus: Sucrose preference test (anhedonia) under chronic stress. The format is in vivo. To be noted: young adult male mice; water one week before and during ten days of chronic stress; 10th day; Citalopram 15 mg/kg per day per os; mean±SEM. Here is the method: Citalopram 15 mg/kg per day per os was used as the reference antidepressant drug. There was no difference between groups at baseline. At 10th day of the stress procedure, animals were tested on the sucrose preference, common test for assessment of anhedonia. Results are presented in Table 6 as mean±SEM percent of sucrose preference.

Consider `CN1C(=O)CN=C(c2ccccc2)c2cc(Cl)ccc21` [Diazepam], for which the “Time (time spent in the lit box)” value in the assay on C57BI/6 mice was found to be 155.2 ± 7.8 s.

Compound `CN(C)CCCC1(c2ccc(F)cc2)OCc2cc(C#N)ccc21` (centres unmarked) [Citalopram] came in with a Sucrose preference in the assay with C57BI/6J mice of 70.0 ± 3.0 %.

The values above are taken from patent US20130142883A1, “MEDICAL FOOD FOR THE DIETARY MANAGEMENT OF DEPRESSION AND ANXIETY AND METHODS THEREOF” (priority 2011, published 2013).
